Assay [1] concerns the target Bifunctional 3'-5' exonuclease/ATP-dependent helicase WRN (Homo sapiens, UniProt Q14191). Kind of assay: ADP-Glo Kinase Assay. On the procedure: ATPase activity was measured using the ADP-Glo Kinase Assay following the manufacturers recommended protocol.
For orientation: ADP-Glo turns the ADP formed in a reaction into a luminescent signal.

Assay [2] addresses T1, Bifunctional 3'-5' exonuclease/ATP-dependent helicase WRN [480-1251] (UniProt Q14191).
T1 construct: 480-1251
As to the kind of experiment: Biochemical Activity Assays.

Each structure is given as a SMILES string. A value given as a limit tells only on which side of the number the result lay.

Sequence of Bifunctional 3'-5' exonuclease/ATP-dependent helicase WRN (Q14191 whole entry): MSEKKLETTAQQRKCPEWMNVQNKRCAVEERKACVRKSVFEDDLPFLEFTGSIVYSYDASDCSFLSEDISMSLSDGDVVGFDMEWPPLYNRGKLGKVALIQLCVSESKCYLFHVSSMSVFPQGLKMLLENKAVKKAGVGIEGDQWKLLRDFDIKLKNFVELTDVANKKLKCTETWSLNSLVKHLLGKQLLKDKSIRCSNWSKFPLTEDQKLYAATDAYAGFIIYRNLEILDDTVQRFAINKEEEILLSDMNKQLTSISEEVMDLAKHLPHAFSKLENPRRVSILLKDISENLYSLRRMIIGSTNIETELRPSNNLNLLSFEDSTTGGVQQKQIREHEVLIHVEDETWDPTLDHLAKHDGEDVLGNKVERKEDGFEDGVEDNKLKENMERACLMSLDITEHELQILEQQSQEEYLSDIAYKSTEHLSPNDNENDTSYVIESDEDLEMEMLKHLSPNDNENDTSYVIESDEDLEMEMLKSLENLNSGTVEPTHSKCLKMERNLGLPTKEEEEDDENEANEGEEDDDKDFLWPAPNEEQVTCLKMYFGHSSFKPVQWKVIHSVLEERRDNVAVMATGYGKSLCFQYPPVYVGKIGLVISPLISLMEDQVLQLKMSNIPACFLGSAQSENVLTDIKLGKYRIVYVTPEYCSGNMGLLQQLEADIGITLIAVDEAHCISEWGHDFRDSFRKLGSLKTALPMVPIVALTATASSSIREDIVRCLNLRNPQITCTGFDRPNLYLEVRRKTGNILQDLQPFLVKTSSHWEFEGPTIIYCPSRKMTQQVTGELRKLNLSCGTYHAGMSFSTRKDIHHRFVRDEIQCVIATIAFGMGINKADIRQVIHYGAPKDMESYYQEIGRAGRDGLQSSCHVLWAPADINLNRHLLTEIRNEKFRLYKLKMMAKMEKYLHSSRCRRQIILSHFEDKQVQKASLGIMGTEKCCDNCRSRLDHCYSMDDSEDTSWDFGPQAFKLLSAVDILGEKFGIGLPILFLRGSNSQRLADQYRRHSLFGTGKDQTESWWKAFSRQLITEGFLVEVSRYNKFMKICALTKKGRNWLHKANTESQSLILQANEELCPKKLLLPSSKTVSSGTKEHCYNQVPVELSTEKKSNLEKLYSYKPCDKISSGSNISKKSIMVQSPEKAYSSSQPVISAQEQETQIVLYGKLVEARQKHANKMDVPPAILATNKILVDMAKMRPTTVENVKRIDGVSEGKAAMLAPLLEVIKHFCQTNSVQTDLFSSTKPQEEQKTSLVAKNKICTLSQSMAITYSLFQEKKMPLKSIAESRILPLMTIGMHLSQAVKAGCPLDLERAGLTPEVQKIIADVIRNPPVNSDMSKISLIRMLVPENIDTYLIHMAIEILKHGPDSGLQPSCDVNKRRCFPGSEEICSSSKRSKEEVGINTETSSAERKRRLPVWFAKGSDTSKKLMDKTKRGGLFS
T1 sequence (Q14191 480-1251): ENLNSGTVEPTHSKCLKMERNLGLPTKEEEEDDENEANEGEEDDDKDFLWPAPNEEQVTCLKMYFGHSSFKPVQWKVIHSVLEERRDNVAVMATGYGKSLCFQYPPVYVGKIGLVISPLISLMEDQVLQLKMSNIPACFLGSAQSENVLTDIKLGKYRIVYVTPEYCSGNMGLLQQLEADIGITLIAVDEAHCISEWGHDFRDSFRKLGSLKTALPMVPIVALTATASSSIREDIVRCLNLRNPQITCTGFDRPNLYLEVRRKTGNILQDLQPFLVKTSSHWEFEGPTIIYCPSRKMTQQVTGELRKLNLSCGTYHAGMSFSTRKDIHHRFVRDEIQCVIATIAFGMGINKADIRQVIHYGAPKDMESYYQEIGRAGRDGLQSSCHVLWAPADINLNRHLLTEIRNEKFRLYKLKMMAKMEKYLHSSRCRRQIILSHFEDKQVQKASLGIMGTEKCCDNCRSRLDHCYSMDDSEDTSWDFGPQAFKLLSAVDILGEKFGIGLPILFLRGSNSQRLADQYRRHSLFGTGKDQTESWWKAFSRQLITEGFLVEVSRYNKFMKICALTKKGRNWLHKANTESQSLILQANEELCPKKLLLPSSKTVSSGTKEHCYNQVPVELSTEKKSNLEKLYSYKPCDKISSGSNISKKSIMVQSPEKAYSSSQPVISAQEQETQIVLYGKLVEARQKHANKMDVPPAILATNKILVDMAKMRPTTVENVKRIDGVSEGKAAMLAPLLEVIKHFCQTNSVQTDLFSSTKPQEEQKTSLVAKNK

The term IC50 denotes the concentration that gives 50% inhibition. On to `CCc1c(N2CCN(C(=O)c3ncnc(C)c3O)CC2)c(=O)n2nc(N(C)C)nc2n1CC(=O)Nc1ccc(SC(F)(F)F)cc1` [WO2025049746, Example 392], for which the figures for the IC50 in assay [1] and in assay [2] were 468 nM and 396 nM, respectively.

Regarding `CCc1c(N2CCN(C(=O)c3cccc4c3NS(=O)(=O)C=C4)CC2)c(=O)n2nc(-c3ccc4c(c3)COC4)nc2n1CC(=O)Nc1ccc(C(F)(F)F)cc1Cl` [WO2025049746, Example 426], the IC50 stood at 34 nM in assay [1] and 25 nM in assay [2].

Turning to `CCc1c(N2CCN(C(=O)c3nc4n(c(=O)c3O)CCOC4)CC2)c(=O)n2nc(-c3ccc4c(c3)COC4(C)C)nc2n1CC(=O)Nc1ccc(C(F)(F)F)cc1Cl` [WO2025049746, Example 462], the IC50 in assay [1] worked out at 35.4 nM; in assay [2], 39.4 nM.

Turning to `CCc1c(N2CCN(C(=O)c3ncnc(C)c3O)CC2)c(=O)n2nc(-c3ccc4c(c3)COC43CN(C)C3)nc2n1CC(=O)Nc1ccc(C(F)(F)F)cc1Cl` [WO2025049746, Example 209], the figures for the IC50 in assay [1] and in assay [2] were 56 nM and 45 nM, respectively.

Take `CCc1c(N2CCN(C(=O)c3ncnc(C)c3O)CC2)c(=O)n2nc(-c3ccc4c(c3)CCOC4)nc2n1CC(=O)Nc1ccc(C(F)(F)F)cc1Cl` [WO2025049746, Example 3]: the IC50 in assay [1] was determined as 41.2 nM; in assay [2] it was 34.4 nM.

Turning to `CCc1c(N2CCN(C(C)=O)CC2)c(=O)n2nc(N(C)C)nc2n1CC(=O)Nc1ccc(C(F)(F)F)cc1Cl` [WO2025049746, Example 81], the IC50 in assay [1] worked out at 533 nM; in assay [2], 174 nM.

Turning to `CCc1c(N2CCN(C(=O)c3ncnc(C)c3O)CC2)c(=O)n2nc(C3CC3)nc2n1CC(=O)Nc1ccc(C(F)(F)F)cc1C` [WO2025049746, Example 78], the IC50 in assay [1] was 194 nM; in assay [2] it was 70.1 nM.

For the compound `Cc1ncnc(C(=O)N2CCN(c3c4n(c5nc(-c6ccc7c(c6)COC7(C)C)nn5c3=O)[C@H](C(=O)Nc3ccc(C(F)(F)F)cc3Cl)C[C@H]4C)[C@H]3CC[C@@H]32)c1O` [WO2025049746, Example 467], the IC50 in assay [1] is > 29700 nM; in assay [2] it was 9570 nM.

For the compound `CCc1c(N2CCN(C(=O)c3nc4c(cc3O)CCOC4)CC2)c(=O)n2nc(-c3ccc4c(c3)COC4(C)C)nc2n1CC(=O)Nc1ccc(C(F)(F)F)cc1Cl` [WO2025049746, Example 463], the IC50 came to 70.5 nM in assay [1] and 84.8 nM in assay [2].

Consider `CCc1c(N2CCN(C(=O)c3ccccc3NS(=O)(=O)C3CC3)CC2)c(=O)n2nc(-c3ccc4c(c3)CCOC4)nc2n1CC(=O)Nc1ccc(C(F)(F)F)c2c1CC2` [WO2025049746, Example 110], for which the IC50 in assay [1] stood at 467 nM; in assay [2] it was 372 nM.

For `CCc1c(N2CCN(C(=O)c3ncnc(C)c3O)CC2)c(=O)n2nc(-c3ccc4c(c3)CCO[C@@H]4C)nc2n1CC(=O)Nc1ccc(C(F)(F)F)cc1Cl` [WO2025049746, Example 228], the IC50 was 32 nM in assay [1] and 28 nM in assay [2].

Turning to `CCc1c(N2CCN(C(=O)C3(CO)CC3)CC2)c(=O)n2nc(C3=CCOCC3)nc2n1CC(=O)Nc1ccc(C(F)(F)F)cc1Cl` [WO2025049746, Example 55], the half-inhibitory concentration (IC50) turned out to be 5740 nM in assay [1] and 3350 nM in assay [2].

Consider `CCc1c(N2CCN(C(=O)c3nc4c(cc3O)CCCC4)CC2)c(=O)n2nc(-c3ccc4c(c3)COC4)nc2n1CC(=O)Nc1ccc(C(F)(F)F)cc1Cl` [WO2025049746, Example 423], for which the IC50 in assay [1] is 169 nM; in assay [2], 150 nM.

Consider `CCc1c(N2CCN(C(=O)c3ncnc(C)c3O)CC2)c(=O)n2nc(-c3ccc4c(c3)CCO4)nc2n1CC(=O)Nc1c(Cl)cc(C(F)(F)F)c2scnc12` [WO2025049746, Example 428], for which the IC50 amounted to 45 nM in assay [1] and 38 nM in assay [2].

For the compound `CCc1c(N2CCN(C(=O)c3ncnc(C)c3O)CC2)c(=O)n2nc(-c3cnc4c(c3)CCO4)nc2n1CC(=O)Nc1ccc(C(F)(F)F)cc1Cl` [WO2025049746, Example 157], the results for the IC50 in assay [1] and in assay [2] were 51 nM and 37 nM, respectively.

For `CCc1c(N2CCN(C(=O)c3ncnc(C)c3O)CC2)c(=O)n2nc(-c3ccc4c(c3)COC4(C)C)nc2n1CC(=O)Nc1ccc(C(F)(F)F)cc1Cl` [WO2025049746, Example 164], the IC50 came to 44 nM in assay [1] and 45 nM in assay [2].

`CCc1c(N2CCN(C(=O)c3nc4c(cc3OCc3ccc(OC)cc3)COCC4)CC2)c(=O)n2nc(-c3ccc4c(c3)COC4(C)C)nc2n1CC(=O)Nc1ccc(C(F)(F)F)cc1Cl` [WO2025049746, Example 464]: the IC50 in assay [1] worked out at 68 nM; in assay [2], 83.3 nM.

Turning to `CCc1c(N2CCN(C(=O)/C=C/C(=O)c3ccc(OC)cc3)CC2)c(=O)n2nc(C3=CCOCC3)nc2n1CC(=O)Nc1ccc(C(F)(F)F)cc1Cl` [WO2025049746, Example 344], the figures for the IC50 in assay [1] and in assay [2] were 289 nM and 242 nM, respectively.

In the case of `CCc1c(N2CCN(C(=O)c3ncnc(C)c3O)CC2)c(=O)n2nc(C3=CCOCC3)nc2n1CC(=O)NC1CC2(CC(F)C2)C1` (stereo unspecified) [WO2025049746, Example 372], the IC50 in assay [1] turned out to be 1830 nM; in assay [2], 1390 nM.

As to `CCc1c(N2CCN(C(=O)c3nccc4nc[nH]c34)CC2)c(=O)n2nc(N(C)C)nc2n1CC(=O)Nc1ccc(C(F)(F)F)c2c1CC2` [WO2025049746, Example 108], the values for the IC50 in assay [1] and in assay [2] were 21.8 nM and 15.5 nM, respectively.

For the compound `CCc1c(N2CCN(C(=O)c3ncnc(C)c3O)CC2)c(=O)n2nc(-c3ccc4nc(NC)oc4c3)nc2n1CC(=O)Nc1ccc(C(F)(F)F)cc1Cl` [WO2025049746, Example 307], the IC50 in assay [1] and in assay [2] was 32 nM each time.

In the case of `CCc1c(N2CCN(C(=O)c3ncnc(C)c3O)CC2)c(=O)n2nc(-c3ccc(C(=O)N4CCCC4)cc3)nc2n1CC(=O)Nc1ccc(C(F)(F)F)cc1Cl` [WO2025049746, Example 267], the IC50 came out at 26 nM in assay [1] and 23 nM in assay [2].

Consider `CCc1c(N2CCN(C(=O)c3ncnc(C)c3O)CC2)c(=O)n2nc(-c3ccc4conc4c3)nc2n1CC(=O)Nc1ccc(C(F)(F)F)cc1Cl` [WO2025049746, Example 265], for which the IC50 in assay [1] and in assay [2] was 40 nM in each case.

With `CCc1c(N2CCN(C(=O)c3ncnc(C)c3O)CC2)c(=O)n2nc(-c3cc(C)c4c(c3)COC4)nc2n1CC(=O)Nc1ccc(C(F)(F)F)cc1Cl` [WO2025049746, Example 206], the results for the IC50 in assay [1] and in assay [2] were 33 nM and 28 nM, respectively.

For `CCc1c(N2CCN(C(=O)c3ncnc(C)c3O)CC2)c(=O)n2nc(-c3cnc4sccc4c3)nc2n1CC(=O)Nc1ccc(C(F)(F)F)cc1Cl` [WO2025049746, Example 310], the results for the IC50 in assay [1] and in assay [2] were 26 nM and 27 nM, respectively.

As for `CCc1c(N2CCN(C(=O)c3ncnc(C)c3O)CC2)c(=O)n2nc(N(C)C)nc2n1C(F)(F)C(=O)Nc1ccc(C(F)(F)F)cc1Cl` [WO2025049746, Example 401], the IC50 is 59 nM in assay [1] and 45 nM in assay [2].

As for `Cc1ncnc(C(=O)N2CCN(c3c4n(c5nc(-c6ccc7c(c6)COC7(C)C)nn5c3=O)[C@@H](C(=O)Nc3ccc(C(F)(F)F)cc3Cl)C[C@H]4C)[C@H]3CC[C@@H]32)c1O` [WO2025049746, Example 465], the IC50 in assay [1] was determined as 29.1 nM; in assay [2] it was 31.9 nM.

Take `CCc1c(N2CCN(C(=O)c3ncnc(C)c3O)CC2)c(=O)n2nc(-c3ccc4c(c3)CC(C)(C)N4C)nc2n1CC(=O)Nc1ccc(C(F)(F)F)cc1Cl` [WO2025049746, Example 316]: the values for the IC50 in assay [1] and in assay [2] were 57 nM and 68 nM, respectively.

The values are drawn from BindingDB's records for patent WO2025049746 (Eikon Therapeutics, 2025).
